These results are taken from the SangsterLogP compilation.

Each structure is given as a SMILES string. Residues, ends and D or L forms follow the SMILES beside them.

This data set can be described thus: method code SF, from Hansch, C. & Leo, A. (1987). Log P database [Dataset]. Pomona College Medicinal Chemistry Project.

Usually logP stands for the decadic logarithm of the partition coefficient of the neutral form, usually between octanol and water. For `COC(=O)CNC(=O)c1ccccc1`, the logP worked out at 0.82. The same measure, in the same setting: under `Cc1cccc(C)c1[N+](=O)[O-]` stands 2.95; under `Cc1cccc(C=C(C(N)=O)C(N)=O)c1`, 0.4. Take `O=CN(Cc1ccccc1)c1ccccc1`: the lipophilicity (logP) amounted to 2.62. On to `O=C1C[C@@H]2OCC=C3CN4CC[C@]56c7ccccc7N1[C@H]5[C@H]2[C@H]3C[C@H]46`, for which the log partition coefficient (logP) turned out to be 1.93. In general, logD refers to the decadic logarithm of the distribution of all forms, ionised or not, between an organic phase and buffer at a given pH. High values mean a more lipophilic compound, low ones a more hydrophilic compound. `CNc1ncnc2ccsc12` had a log distribution coefficient (logD) (pH 7.0) of 1.43. Take `CCCOP(=O)(OCCC)OCCC`: the lipophilicity (logP) stood at 1.87.

Take `NC(=O)CCl`: the lipophilicity (logP) is -0.53. As for `COc1cccc(C=C(C(C)=O)C(C)=O)c1`, the logP was determined as 1.79.

For the compound `CS(=O)(=O)Nc1cccc(NS(C)(=O)=O)c1`, the logP came out at 0.07.

Under “pH 11.0”, `c1cncc(CCN2CCCC2)c1` had a logD of 1.34. For the compound `CC(=NO)c1ccsc1`, the log partition coefficient (logP) worked out at 1.81.

For the compound `CCOC(C)OCC`, the logP is 1.49. In turn, `O=c1[nH]cc(I)c(=O)[nH]1` yielded a lipophilicity (logP) of 0.04. For the compound `COc1cc(C=NOC(=O)c2ccccc2OC)ccc1OCCO`, the logP turned out to be 2.84. In turn, `CC(=O)NC(=O)NC(C)=O` came in with a log partition coefficient (logP) of -0.68. `COC1C=COC2(C)Oc3c(C)c(O)c4c(O)c(c(/C=N\N5CCCCCCCCCC5)c(O)c4c3C2=O)NC(=O)/C(C)=C\C=C/C(C)C(O)C(C)C(O)C(C)C(OC(C)=O)C1C` (stereo not given) came in with a lipophilicity (logP) of 4.05. On the same count and under the same terms, under `C=CC(N)=O` stands -0.67; under `N#CN=[N+]([O-])c1ccc(C(F)(F)F)cc1`, 2.47. Still for that read-out and setting: the figure for `O=C(/C=C/c1ccccc1)N1CCCCC1` is 2.74; for `CCOC(=O)C(=Cc1ccccc1F)C(=O)OCC` it is 3.04. For the compound `c1ccc2c(c1)CNc1ccccc1C2`, the logP was determined as 2.9. `CCOc1cn[nH]c1`: the logP worked out at 0.8. `O=C1CCCCC1` came in with a logP of 0.81.

`NS(=O)(=O)Nc1ccccc1` gave a log partition coefficient (logP) of 0.4. With `CS(=O)(=O)Nc1ccccc1`, the lipophilicity (logP) was 0.95. The same measure, in the same setting: the figure for `O=C(O)CONC(=O)c1ccccc1` is -0.27. `O=c1[nH]cc(C(F)(F)F)c(=O)[nH]1` returned a log partition coefficient (logP) of 0.04. `O=Nc1ccc(O)cc1` came in with a logP of 1.29. Compound `CN(C(=O)c1ccccc1)c1ccccc1` showed a lipophilicity (logP) of 2.36. Regarding `O=c1[nH]c(=O)n([C@H]2C[C@H](O)[C@@H](CO)O2)cc1C(F)(F)F`, the log partition coefficient (logP) is -0.46.

Compound `COc1ccc2[nH]c(CCCc3nc4cc(OC)ccc4[nH]3)nc2c1` came in with a log partition coefficient (logP) of 1.75. Take `COc1cc(C=O)ccc1OCCOC(=O)c1ccc(Cl)cc1`: the logP is 3.71. As for `CCC1=Nc2ccc(Cl)cc2S(=O)(=O)N1`, the log partition coefficient (logP) came to 1.62.

For the compound `CCN(CC)/N=N/c1nc[nH]c1C(N)=O`, the log distribution coefficient (logD) (pH 4.6) came out at 0.78.

Consider `O=C1C(=O)c2cccc3cccc1c23`, for which the log partition coefficient (logP) worked out at 1.95. For the compound `S=C=Nc1ccccc1`, the log partition coefficient (logP) was 3.25. On the same count and under the same terms, under `CCN(CC)C(C)CN1c2ccccc2Sc2ccccc21` (stereo not given) stands 4.77.

`OCCOc1ccccc1` gave a logP of 1.16. On to `CCOCCOC(=O)C(C#N)=C(CC)NCc1ccc([N+](=O)[O-])cc1`, for which the log partition coefficient (logP) came to 2.64. Compound `CC1CCC(=O)CC1` returned a logP of 1.38.

Compound `c1cnc2ncncc2n1` returned a lipophilicity (logP) of -0.58. The compound `CON(C)C(=O)Nc1cccc(C#N)c1` had a logP of 1.33. In turn, `CCC1OC(=O)C(C)C(OC2CC(C)(OC)C(O)C(C)O2)C(C)C(OC2OC(C)CC(N(C)C)C2O)C2(C)CC(C)C3(OC(=O)OC(C3C)C1(C)O)O2` (stereo not given) yielded a log partition coefficient (logP) of 3.11. For `CCOP(=O)(OCC)SCn1nnc2ccccc2c1=O`, the logP turned out to be 1.63.

In the case of `CCC(C)NC(=O)C(=Cc1ccccc1)OC` (stereo not given), the logP came out at 2.86. On to `O=Cc1ccsc1`, for which the logP turned out to be 1.01. For `CC(=O)Nc1cccc(OC(=O)CNC(=O)c2ccccc2)c1`, the logP is 1.7. The compound `CCOC(N)=O` gave a logP of -0.15. `Cc1c(N2CCOCC2)c(=O)n(C)c(=O)n1C1CCCCC1` gave a logD (pH 7.4) of 2.39. With `CCCCCCCOC(=O)c1ccc(O)cc1`, the log partition coefficient (logP) stood at 4.83.

`Sc1ncnc2nc[nH]c12` registered a logD (pH 7.4) of 0.01. For `O=C1C=CC(=NCl)C=C1`, the logP amounted to 1.26.

As for `CCNC(=S)Nc1ccccc1`, the logP is 1.42. With `CCOC(CP(=O)(OCC)OCC)OCC`, the lipophilicity (logP) is 0.69.

Regarding `CC(=O)Nc1ccc(C(F)(F)F)cc1`, the lipophilicity (logP) was determined as 2.52.

`CC(C)Cl`: the log partition coefficient (logP) stood at 1.9. `CC(C)(O)C(F)(F)F` gave a lipophilicity (logP) of 1.04. Still for that read-out and setting: under `N#CN=[N+]([O-])c1ccccc1` stands 1.87.

Consider `ClC(Cl)=C(Cl)Cl`, for which the log partition coefficient (logP) worked out at 3.4.

The compound `CC(C)C(=O)Nc1ccc(Cl)c(Cl)c1` registered a logP of 3.72.

`Nc1n[nH]c(N)n1` returned a logD (pH 7.4) of -1.61. Regarding `O=C(NCc1ccccc1)c1ccco1`, the logP was 1.81.

As to `Cc1nnc(SCC2=C(C(=O)O)N3C(=O)C(NC(=O)Cc4cccs4)C3SC2)s1` (stereo not given), where the note is “pH 3.0”, the logD was 0.67. In turn, `COC(=O)c1ccccc1Cl` displayed a logP of 2.38. `COc1cccc(NC(C)=O)c1` yielded a log partition coefficient (logP) of 1.28. On the same count and under the same terms, under `NC(=O)c1ccc(Cl)cc1` stands 1.53; under `CC(=O)Nc1ccc(S(C)(=O)=O)cc1`, 0.58. Same read-out and setting: the figure for `CC1CCC(O)CC1` (stereo not given) is 1.79. `CCOC(=O)C(=Cc1ccc(OC)cc1)C(C)=O`: the log partition coefficient (logP) turned out to be 2.46. The same measure, in the same setting: under `C[C@@H]1C[C@@H]([C@H](O)CC2CC(=O)NC(=O)C2)C(=O)[C@@H](C)C1` stands 0.55; under `O=[N+]([O-])c1ccc2[nH]c(C(O)C(O)c3nc4cc([N+](=O)[O-])ccc4[nH]3)nc2c1` (stereo not given), 1.45. Where the note is “pH 7.0”, `CCCOC(=O)c1cccnc1` showed a log distribution coefficient (logD) of 1.94.

For the setting “pH 12.0”, `CC1(C)N=C(N)N=C(N)N1c1cccc([N+](=O)[O-])c1` displayed a log distribution coefficient (logD) of 0.06. In turn, `CC=NO` yielded a logP of -0.13. `CN(C)C(=O)Nc1ccc(C(C)(C)C)cc1`: the log partition coefficient (logP) was 3.1.

Under “pH 7.4”, `CO[C@H]1O[C@H](CNC(=O)N(C)N=O)[C@@H](O)[C@H](O)[C@H]1O` registered a logD of -1.57. On to `CSc1ccc(C=NN=C(N)NN)cc1`, for which the logP turned out to be 1.35. For the compound `CCOCCOC(=O)C(C#N)=C(CC)Nc1ccc(N)cc1`, the log partition coefficient (logP) amounted to 2.27. The same measure, in the same setting: the figure for `COC(=O)C=Cc1ccccc1` is 2.62; for `CC(=O)C(F)(F)F` it is 0.2.

Turning to `c1cn[nH]n1`, the logP was -0.29. `Oc1ccc(Nc2ccccc2)cc1` returned a pH-dependent lipophilicity (logD) (pH 6.4) of 2.82. On to `CN(C=O)c1ccccc1`, for which the log partition coefficient (logP) stood at 1.09.

For the setting “pH 1.0”, `CCc1ccccc1OCC(=O)O` displayed a logD of 2.53. For the compound `OC[C@@H]1C[C@H]1c1ccccc1`, the log partition coefficient (logP) came to 1.95. Same read-out and setting: the figure for `COc1cccc2cccnc12` is 1.84; for `O=c1cc[nH]cn1` it is -1.38. `C=C(C)CC1(CC)C(=O)NC(=S)NC1=O` registered a logP of 2.19.

Compound `CCOC(=O)NC1=C(N2CC2)C(=O)C(NC(=O)OCC)=C(N2CC2)C1=O` registered a lipophilicity (logP) of 0.05. In turn, `CCNCc1cccnc1` returned a pH-dependent lipophilicity (logD) (pH 11.0) of 0.76.

Turning to `CCOC(=O)c1ccncc1`, the log partition coefficient (logP) is 1.43.

Take `CCCC1CNC(C(=O)NC(C(C)O)C2OC(SC)C(O)C(O)C2O)C1` (stereo not given): for the setting “pH 12.3”, the pH-dependent lipophilicity (logD) is 0.04.

As for `CN(C)c1ccc2c(c1)C(=O)OC2(C)C`, the log partition coefficient (logP) was determined as 2.42.

Compound `O=C(O)CCCc1c[nH]c2ccccc12` displayed a logP of 2.3. As for `O=NN(CCCl)C(=O)N[C@@H]1[C@@H](O)[C@H](O)[C@@H](CO)O[C@H]1O`, the logD (pH 7.4) was -1.02. The compound `CC(=O)Nc1cc(OCC(=O)O)ccc1Cl` displayed a logP of 0.75. For `CCOP(=O)(OCC)Oc1ccc(SC)cc1`, the log partition coefficient (logP) is 2.79. For `CCC(C)C1=Nc2ccc(Cl)cc2S(=O)(=O)N1` (stereo not given), the logP turned out to be 2.47. Compound `CN(C)S(=O)(=O)c1ccccc1` registered a logP of 1.35.

For `CC(=O)c1ccccc1O`, the log partition coefficient (logP) amounted to 1.88.

As for `COC(=O)c1cc2nc(S(=O)Cc3ncccc3C)[nH]c2cc1C` (stereo not given), under “pH 5.4”, the pH-dependent lipophilicity (logD) came out at 2.4.

In the case of `NC(=O)[C@H](Cc1ccccc1)NC(=O)[C@@H](N)Cc1ccccc1` (H-Phe-Phe-NH2), the logP was found to be 1.13. `CSc1cccc(/N=N/N(C)C)c1` returned a lipophilicity (logP) of 2.98. Same read-out and setting: under `CC(=O)NC1CCSC1=O` (stereo not given) stands -0.35. For `CN(C)Cc1cccnc1`, the logD (pH 11.0) turned out to be 0.49.

With `O=c1cc[nH]c2ccccc12`, the logP was found to be 0.58. `CN(Cc1ccc([N+](=O)[O-])cc1)/N=N/c1ccc(C(=O)O)cc1` had a lipophilicity (logP) of 4.03. As to `O=C(COc1ccccc1)Nc1ccccc1`, the lipophilicity (logP) was 2.73. The compound `Nc1ccccc1Br` gave a log partition coefficient (logP) of 2.11. Regarding `Nc1ccc(I)cc1`, the logP was found to be 2.34. On the same count and under the same terms, under `Clc1ccc2[nH]c(CCCc3nc4cc(Cl)ccc4[nH]3)nc2c1` stands 1.88; under `ICCCc1ccccc1`, 3.9. For `NC(=S)c1ccccc1`, the logP is 1.49.

`COC1=C[C@@]23CCCN2CCc2cc4c(cc2[C@@H]3[C@@H]1O)OCO4` returned a logP of 0.84.

Consider `CCC(C)c1cnc(CC(C)C)c(=O)n1O` (stereo not given), for which the log partition coefficient (logP) worked out at 1.81. `CNC(=O)NC`: the lipophilicity (logP) was -0.96. On the same count and under the same terms, the figure for `O=c1[nH]c2ccccc2s1` is 1.76; for `COc1cc(OC)c(OC)cc1CC(C)N` (stereo not given) it is 1.74. Turning to `c1cncc(CCN2CCCCC2)c1`, where the note is “pH 11.0”, the log distribution coefficient (logD) worked out at 1.66. With `COc1cccc([N+]([O-])=NC#N)c1`, the logP was 2.24. `CC(C)CC(CC(C)C)OC(=O)c1ccc(NC(=O)N(C)C)cc1Cl`: the log partition coefficient (logP) was determined as 5.15. In turn, `Cc1cccs1` returned a log partition coefficient (logP) of 2.33.

For the compound `O=c1[nH]cc(CO)c(=O)[nH]1`, the logP was -1.94. Turning to `CCOC(=O)C(=Cc1ccccc1[N+](=O)[O-])C(=O)OCC`, the logP came out at 2.54. With `CCSc1ccccc1`, the log partition coefficient (logP) worked out at 3.2.

Turning to `NC(=O)c1ccc(F)cc1`, the lipophilicity (logP) came out at 0.91. Compound `FS(F)(F)(F)(F)c1ccccc1` had a logP of 3.36. Regarding `CN(C(=O)CCS(C)=O)c1ccc(S(=O)(=O)N(C)C)cc1` (stereo not given), the logP is -0.67. As to `CN(C(=O)CCCl)c1ccc(S(=O)(=O)N(C)C)cc1`, the logP came out at 0.98.
